Test results from patent US20240246968A1, “SMALL MOLECULE INHIBITORS OF KRAS G12C MUTANT” (Merck Sharp & Dohme LLC, priority 2021, published 2024).
pIC50: −log10 of the molar value.

Tests used:
[1] = biological target: biotinylated KRAS G12C protein (GMP-PNP loaded) and GST-tagged Ras binding domain of c-RAF (Homo sapiens, UniProt P01116, C118S/C51S/C80L/G12C); assay: RAS:RAF-RBD binding assay (TR-FRET); type: biochemical; conditions: 30-minute incubation with KRAS G12C, then RAF-RBD 60 minute
MIA PaCa-2 cells = assay: Growth inhibition activity on KRAS-G12C mutant cell line (MIA PaCa-2), CellTiter-Glo 3D; type: cell-based, human; conditions: Homo sapiens, MIA PaCa-2, 72 h, MIA PaCa-2, 3-day culture with compound
Method in brief: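 Luminescence readout (CellTiter-Glo 3D) after 3 days of compound treatment at 37 °C, 5% CO2, 0.2% final DMSO, gave % growth inhibition versus no-compound wells, from which IC50 (nM) was derived; cells had been plated in 10% FBS RPMI1640 one day before dosing.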

[2] = biological target: T1, interaction between recombinant K-Ras4B G12C mutant protein and cRAF RAS-binding domain (cRAF-RBD) (Homo sapiens, UniProt P01116, G12C); assay: Inhibitory activity on interaction between KRAS G12C and cRAF (Alpha technology); type: biochemical; conditions: GMPPNP-bound KRAS G12C incubated with compound at 25° C. for 1 hour, then cRAF-RBD; Alpha signal
T1 construct: made in house; host or cells: E. coli
Method in brief: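 Alpha readout of cRAF-RBD (aa 50-132) binding to KRAS G12C (aa 1-169) after 1.5 h RT, following 1 h, 25° C compound preincubation with GMPPNP-bound protein (pH 7.5 Tris, 1 mM MgCl2, TCEP, Tween 20). IC50 fitted from titrations, with GDP-bound KRAS as 100% and DMSO as 0% inhibition.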

[3] = biological target: Gppcp-bound recombinant K-Ras4B G12C mutant protein (amino acids 1-169, C51S/C80L/C118S) (Homo sapiens, UniProt P01116, C118S/C51S/C80L/G12C); assay: KRASG12C binding assay (LC-MS, compound binding rate); conditions: test compound final concentration 0.5 μM, 25° C., 1 hour
Method in brief: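 Covalent adduct formation measured by deconvoluted intact-mass LC-MS after 1 h at 25 °C with compound at 0.5 μM final and 50 nM Gppcp-loaded KRAS G12C (residues 1-169, C51S/C80L/C118S). Buffer: TBS, 0.1 mM TCEP, 0.25 mM MgCl2, 50 μM Gppcp. Binding % = one-molecule adduct/(unbound + all adducts), binned A ≥80, B 60–80, C 40–60, D 20–40, E <20.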

Row | pIC50 [1] | pIC50 (MIA PaCa-2 cells) | pIC50 [2] | SMILES | binding rate [3]
1 | 7.25 |  |  | COc1c(-c2cccn3c(C(=O)c4cc(F)c(NC(=O)/C=C/CN[C@H]5CC[C@H](OC)CC5)c(F)c4)ccc23)c(C(F)(F)F)cc2c1cnn2C (single isomer, unassigned) [Example 117, (E)-N-(2,6-difluoro-4-(8-(4-methoxy-1-methyl-6-(trifluoromethyl)-1H-indazol-5-yl)indolizine-3-carbonyl)phenyl)-4-(((1r,4r)-4-methoxycyclohexyl)amino)but-2-enamide] | 
2 |  | 6.49 | 7.36 | CCCc1cc(C(=O)c2cc(F)c(NC(=O)/C=C/CN[C@H]3CC[C@H](OC)CC3)c(F)c2)n2cccc(-c3c(C)cc4c(nc(C)n4C)c3Cl)c12 [Example 97, (E)-N-(4-(8-(4-chloro-1,2,6-trimethyl-1H-benzo[d]imidazol-5-yl)-1-propylindolizine-3-carbonyl)-2,6-difluorophenyl)-4-(((1r,4r)-4-methoxycyclohexyl)amino)but-2-enamide] | A (A binding rate of 80% or more is rated “A”)
3 |  | 6.77 | 6.77 | CCc1nc2c(-c3cc4nc(C)n(C)c4cc3C(F)(F)F)cccn2c1C(=O)c1cc(F)c(NC(=O)/C=C/CN[C@H]2CC[C@H](OC)CC2)c(F)c1 [Example 99, (E)-N-(4-(8-(1,2-dimethyl-6-(trifluoromethyl)-1H-benzo[d]imidazol-5-yl)-2-ethylimidazo[1,2-a]pyridine-3-carbonyl)-2,6-difluorophenyl)-4-(((1r,4r)-4-methoxycyclohexyl)amino)but-2-enamide] | A (A binding rate of 80% or more is rated “A”)
4 |  | 7.11 | 7.39 | CO[C@H]1CC[C@H](NC/C=C/C(=O)Nc2c(F)cc(C(=O)c3cc(CC#N)c4c(-c5c(C)cc6c(nc(C)n6C)c5Cl)cccn34)cc2F)CC1 [Example 108, (E)-N-(4-(8-(4-chloro-1,2,6-trimethyl-1H-benzo[d]imidazol-5-yl)-1-(cyanomethyl)indolizine-3-carbonyl)-2,6-difluorophenyl)-4-(((1r,4r)-4-methoxycyclohexyl)amino)but-2-enamide] | A (A binding rate of 80% or more is rated “A”)
5 |  | 6.74 | 7.09 | CO[C@H]1CC[C@H](NC/C=C/C(=O)Nc2c(F)cc(C(=O)c3ccc4c(-c5cc6[nH]c(=O)n(C)c6cc5C(F)(F)F)cccn34)cc2F)CC1 [Example 110, (E)-N-(2,6-difluoro-4-(8(1-methyl-2-oxo-6-(trifluoromethyl)-2,3-dihydro-1H-benzo[d]imidazol-5-yl)indolizine-3-carbonyl)phenyl)-4-(((1r,4r)-4-methoxycyclohexyl)amino)but-2-enamide] | A (A binding rate of 80% or more is rated “A”)
6 |  | 6.60 | 6.34 | CO[C@H]1CC[C@H](NC/C=C/C(=O)Nc2c(F)cc(C(=O)c3ccc4c(-c5cc6nc(C)n(C)c6cc5C(F)(F)F)nccn34)cc2F)CC1 [Example 115, (E)-N-(4-(1-(1,2-dimethyl-6-(trifluoromethyl)-1H-benzo[d]imidazol-5-yl)pyrrolo[1,2-a]pyrazine-6-carbonyl)-2,6-difluorophenyl)-4-(((1r,4r)-4-methoxycyclohexyl)amino)but-2-enamide] | B (a binding rate of 60% or more and less than 80% is rated “B”)

Second part, the molecule before the results:

Row | SMILES | pIC50 [1] | pIC50 (MIA PaCa-2 cells) | pIC50 [2] | binding rate [3]
7 | COc1c(-c2cccc3c2ccn3C(=O)c2cc(F)c(NC(=O)/C=C/CN[C@H]3CCOC3)c(F)c2)c(C(F)(F)F)cc2c1nc(C)n2C (single isomer, unassigned) [Example 116, mono(2,2,2-trifluoroacetate)] | 7.83 |  |  | 
8 | C/C=C/c1cc(C(=O)c2cc(F)c(NC(=O)/C=C/CN[C@H]3CC[C@H](OC)CC3)c(F)c2)n2cccc(-c3c(C)cc4c(nc(C)n4C)c3Cl)c12 [Example 96, (E)-N-(4-(8-(4-chloro-1,2,6-trimethyl-1H-benzo[d]imidazol-5-yl)-1-((E)-prop-1-en-1-yl)indolizine-3-carbonyl)-2,6-difluorophenyl)-4-(((1r,4r)-4-methoxycyclohexyl)amino)but-2-enamide] |  | 6.89 | 7.44 | A (A binding rate of 80% or more is rated “A”)
9 | Cc1cc2c(nc([C@@H](C)O)n2C)c(Cl)c1-c1cccn2c(C(=O)c3cc(F)c(NC(=O)/C=C/CNC(C)(C)C)c(F)c3)ccc12 [Example 98, (R,E)-4-(tert-butylamino)-N-(4-(8-(4-chloro-2-(1-hydroxyethyl)-1,6-dimethyl-1H-benzo[d]imidazol-5-yl)indolizine-3-carbonyl)-2,6-difluorophenyl)but-2-enamide] |  | 7.38 | 7.39 | A (A binding rate of 80% or more is rated “A”)
10 | C#Cc1cc(C(=O)c2cc(F)c(NC(=O)/C=C/CN[C@H]3CC[C@H](OC)CC3)c(F)c2)n2cccc(-c3c(C)cc4c(nc(C)n4C)c3Cl)c12 [Example 100] |  | 7.02 | 7.15 | A (A binding rate of 80% or more is rated “A”)
11 | CO[C@H]1CC[C@H](NC/C=C/C(=O)Nc2c(F)cc(C(=O)c3cc(-c4cnn(C)c4)c4c(-c5c(C)cc6c(nc(C)n6C)c5Cl)cccn34)cc2F)CC1 [Example 101, (E)-N-(4-(8-(4-chloro-1,2,6-trimethyl-1H-benzo[d]imidazol-5-yl)-1-(1-methyl-1H-pyrazol-4-yl)indolizine-3-carbonyl)-2,6-difluorophenyl)-4-(((1r,4r)-4-methoxycyclohexyl)amino)but-2-enamide] |  | 7.03 | 7.27 | A (A binding rate of 80% or more is rated “A”)
12 | COCc1cc(C(=O)c2cc(F)c(NC(=O)/C=C/CN[C@H]3CC[C@H](OC)CC3)c(F)c2)n2cccc(-c3c(C)cc4c(nc(C)n4C)c3Cl)c12 [Example 103, (E)-N-(4-(8-(4-chloro-1,2,6-trimethyl-1H-benzo[d]imidazol-5-yl)-1-(methoxymethyl)indolizine-3-carbonyl)-2,6-difluorophenyl)-4-(((1r,4r)-4-methoxycyclohexyl)amino)but-2-enamide] |  | 7.13 | 7.50 | A (A binding rate of 80% or more is rated “A”)
13 | CO[C@H]1CC[C@H](NC/C=C/C(=O)Nc2c(F)cc(C(=O)c3ccc4c(-c5c(C(F)(F)F)cc6c(nc(C)n6C)c5Cl)cccn34)c(F)c2F)CC1 [Example 104, (E)-N-(4-(8(4-chloro-1,2-dimethyl-6-(trifluoromethyl)-1H-benzo[d]imidazol-5-yl)indolizine-3-carbonyl)-2,3,6-trifluorophenyl)-4-(((1r,4r)-4-methoxycyclohexyl)amino)but-2-enamide] |  | 7.04 | 7.10 | A (A binding rate of 80% or more is rated “A”)
14 | CO[C@H]1CC[C@H](NC/C=C/C(=O)Nc2c(F)cc(C(=O)c3cc(C(=O)N(C)C)c4c(-c5c(C)cc6c(nc(C)n6C)c5Cl)cccn34)cc2F)CC1 [Example 106, 8-(4-chloro-1,2,6-trimethyl-1H-benzo[d]imidazol-5-yl)-3-(3,5-difluoro-4-((E)-4-(((1r,4r)-4-methoxycyclohexyl)amino)but-2-enamido)benzol)-N,N-dimethylindolizine-1-carboxamide] |  | 6.87 | 7.51 | A (A binding rate of 80% or more is rated “A”)
15 | CO[C@H]1CC[C@H](NC/C=C/C(=O)Nc2c(F)cc(C(=O)c3cc(C(N)=O)c4c(-c5c(C)cc6c(nc(C)n6C)c5Cl)cccn34)cc2F)CC1 [Example 107, 8-(4-chloro-1,2,6-trimethyl-1H-benzo[d]imidazol-5-yl)-3-(3,5-difluoro-4-((E)-4-(((1r,4r)-4-methoxycyclohexyl)amino)but-2-enamido)benzoyl)indolizine-1-carboxamide] |  | 6.24 | 7.42 | A (A binding rate of 80% or more is rated “A”)
16 | COCCn1c(C)nc2c(F)c(-c3cccn4c(C(=O)c5cc(F)c(NC(=O)/C=C/CNC6(C)CC6)c(F)c5)ccc34)c(OC)cc21 [Example 113, (E)-N-(2,6-difluoro-4-(8-(4-fluoro-6-methoxy-1-(2-methoxyethyl)-2-methyl-1H-benzo[d]imidazol-5-yl)indolizine-3-carbonyl)phenyl)-4-((1-methylcyclopropyl)amino)but-2-enamide] |  | 7.25 | 7.35 | A (A binding rate of 80% or more is rated “A”)
17 | COc1cc2c(c(F)c1-c1cccn3c(C(=O)c4cc(F)c(NC(=O)/C=C/CNC5(C)CC5)c(F)c4)ccc13)c(=O)ncn2C [Example 114] |  | 5.97 | 7.72 | A (A binding rate of 80% or more is rated “A”)
